Laboratory results reported in patent US9040524B2, “Antifungal 5,6-dihydro-4H-pyrrolo[1,2-a][1,4]-benzodiazepines and 6H-pyrrolo[1,2-a][1,4]benzodiazepines substituted with bicycle benzene derivatives” (JANSSEN PHARMACEUTICA NV, priority 2010, dated 2015).

Experiments:
Assay type in all cases: cell-based
[1] = tested on: Microsporum canis; assay: Antifungal activity in vitro, resazurin growth inhibition screen: Microsporum canis; conditions: Microsporum canis B68128; for IC50: read-out: Inf. B pIC50 (converted)
Experimental: (§1) The standard susceptibility screen was performed in 96-well plates (U-bottom, Greiner Bio-One). Serial dilutions (2-fold or 4-fold) of 20 mM compound stock solutions were made in 100% DMSO, followed by an intermediate dilution step in water. These serial dilutions (10 μl) were then spotted onto test-plates that could be stored in the dark at 4° C. for a maximum period of 2 weeks. An adequate broad dose-range was included with 64 μM as the highest in-test concentration. […] The different fungal species/isolates (Table 3a) were cryopreserved and 1/1000 diluted in medium just prior to use. A standard inoculum of 200 μl containing 10^3 colony-forming unit (cfu) was then added to each well. A positive control (100% growth=fungal culture without antifungal) and a negative control (0% growth=RPMI-MOPS medium) were included on each plate.

[2] = tested on: Rhizomucor miehei; assay: Antifungal activity in vitro, resazurin growth inhibition screen: Rhizomucor miehei; conditions: Rhizomucor miehei IHEM13391
Experimental: as §1

[3] = tested on: Scedosporium prolificans; assay: Antifungal activity in vitro, resazurin growth inhibition screen: Scedosporium prolificans; conditions: Scedosporium prolificans IHEM21157
Experimental: as §1

[4] = tested on: Sporothrix schenkii; assay: Antifungal activity in vitro, resazurin growth inhibition screen: Sporothrix schenkii; conditions: Sporothrix schenkii B62482; for IC50: read-out: Inf. A pIC50 (converted)
Experimental: as §1

[5] = tested on: Scedosporium apiospermum; assay: Antifungal activity in vitro, resazurin growth inhibition screen: Scedosporium apiospermum; conditions: Scedosporium apiospermum IHEM3817
Experimental: as §1

[6] = tested on: Cryptococcus neoformans; assay: Antifungal activity in vitro, resazurin growth inhibition screen: Cryptococcus neoformans; conditions: Cryptococcus neoformans B66663; for IC50: read-out: Inf. F pIC50 (converted)
Experimental: as §1

[7] = tested on: Rhizopus oryzae; assay: Antifungal activity in vitro, resazurin growth inhibition screen: Rhizopus oryzae; conditions: Rhizopus oryzae IHEM5223
Experimental: as §1

[8] = tested on: Aspergillus fumigatus; assay: Antifungal activity in vitro, resazurin growth inhibition screen: Aspergillus fumigatus; conditions: Aspergillus fumigatus B42928; for IC50: read-out: Inf. E pIC50 (converted)
Experimental: as §1

[9] = tested on: Trichophyton rubrum; assay: Antifungal activity in vitro, resazurin growth inhibition screen: Trichophyton rubrum; conditions: Trichophyton rubrum B68183; for IC50: read-out: Inf. C pIC50 (converted)
Experimental: as §1

[10] = tested on: Candida parapsilosis; assay: Antifungal activity in vitro, resazurin growth inhibition screen: Candida parapsilosis; conditions: Candida parapsilosis B66126; for IC50: Lodderomyces parapsilosis, read-out: Inf. D pIC50 (converted)
Experimental: as §1

[11] = tested on: Trichophyton mentagrophytes; assay: Antifungal activity in vitro, resazurin growth inhibition screen: Trichophyton mentagrophytes; conditions: Trichophyton mentagrophytes B70554; for IC50: read-out: Inf. G pIC50 (converted)
Experimental: as §1

Br.Clc1cccc2c1CNC(c1ccc3c(c1)CCC3)c1cccn1-2 (stereo not drawn) [Compound 13, 7-chloro-4-(2,3-dihydro-1H-inden-5-yl)-5,6-dihydro-4H-pyrrolo[1,2-a][1,4]benzo-diazepine .HBr]
Inf. B pIC50 [1]: 6.36
Inf. K pIC50 [2]: <4.19
Inf. I pIC50 [3]: 5.72
Inf. A pIC50 [4]: 5.15
Inf. H pIC50 [5]: 4.52
Inf. F pIC50 [6]: 5.30
Inf. J pIC50 [7]: <4.19
Inf. E pIC50 [8]: 5.70
Inf. C pIC50 [9]: 6.47
Inf. D pIC50 [10]: 5.52
Inf. G pIC50 [11]: 6.95

Clc1cc(Cl)c2c(c1)-n1cccc1C(c1ccc3c(c1)CCC3)=NC2 [Compound 23, 7,9-dichloro-4-(2,3-dihydro-1H-inden-5-yl)-6H-pyrrolo[1,2-a][1,4]benzodiazepine]
IC50 [1]: 1000 nM
IC50 ([2]; read-out: Inf. K pIC50 (converted)): > 64600 nM
IC50 ([3]; Lomentospora prolificans, read-out: Inf. I pIC50 (converted)): 603 nM
IC50 [4]: 33900 nM
IC50 ([5]; read-out: Inf. H pIC50 (converted)): 24000 nM
IC50 [6]: 457 nM
IC50 ([7]; Rhizopus arrhizus, read-out: Inf. J pIC50 (converted)): > 64600 nM
IC50 [8]: 912 nM
IC50 [9]: 676 nM
IC50 [10]: 2000 nM
IC50 [11]: 794 nM

Cl.Clc1cccc2c1CNC(c1ccc3c(c1)CCOC3)c1cccn1-2 (stereo not drawn) [Compound 28, 7-chloro-4-(3,4-dihydro-1H-2-benzopyran-6-yl)-5,6-dihydro-4H-pyrrolo[1,2-a]-[1,4]benzodiazepine .HCl]
Inf. B pIC50 [1]: 6.24
Inf. K pIC50 [2]: 4.39
Inf. I pIC50 [3]: 4.63
Inf. A pIC50 [4]: <4.19
Inf. H pIC50 [5]: 4.97
Inf. F pIC50 [6]: 4.71
Inf. J pIC50 [7]: <4.19
Inf. E pIC50 [8]: 5.99
Inf. C pIC50 [9]: 6.66
Inf. D pIC50 [10]: 5.53
Inf. G pIC50 [11]: 6.29

Clc1cccc2c1CN=C(c1ccc3c(c1)CCOC3)c1cccn1-2 [Compound 37, 7-chloro-4-(3,4-dihydro-1H-2-benzopyran-6-yl)-6H-pyrrolo[1,2-a][1,4]benzo-diazepine]
Inf. B pIC50 [1]: 6.62
Inf. K pIC50 [2]: <4.19
Inf. I pIC50 [3]: 5.85
Inf. A pIC50 [4]: 5.26
Inf. H pIC50 [5]: 4.48
Inf. F pIC50 [6]: 5.88
Inf. J pIC50 [7]: <4.19
Inf. E pIC50 [8]: 6.77
Inf. C pIC50 [9]: 6.89
Inf. D pIC50 [10]: 5.79
Inf. G pIC50 [11]: 6.47

O=C1CCc2cc(C3=NCc4cccc(Cl)c4-n4cccc43)ccc21 [Compound 57, 5-(10-chloro-6H-pyrrolo[1,2-a][1,4]benzodiazepin-4-yl)-2,3-dihydro-1H-inden-1-one]
IC50 [1]: 2000 nM
IC50 [4]: 2240 nM
IC50 [6]: 5890 nM
IC50 [8]: 2400 nM
IC50 [9]: 1580 nM
IC50 [10]: > 64600 nM
IC50 [11]: 3980 nM

O=C1CCCc2cc(C3=NCc4cccc(Cl)c4-n4cccc43)ccc21 [Compound 61, 6-(10-chloro-6H-pyrrolo[1,2-a][1,4]benzodiazepin-4-yl)-3,4-dihydro-1 (2H)-naphthalenone]
IC50 [1]: > 64600 nM
IC50 [4]: 31600 nM
IC50 [6]: 8130 nM
IC50 [8]: 32400 nM
IC50 [9]: 49000 nM
IC50 [10]: 4370 nM
IC50 [11]: > 64600 nM

FC1(F)CCc2cc(C3=NCc4c(Cl)cccc4-n4cccc43)ccc21 [Compound 66, 7-chloro-4-(1,1-difluoro-2,3-dihydro-1H-inden-5-yl)-6H-pyrrolo[1,2-a][1,4]benzo-diazepine]
Inf. B pIC50 [1]: 4.49
Inf. A pIC50 [4]: 4.46
Inf. F pIC50 [6]: 6.11
Inf. E pIC50 [8]: 5.09
Inf. C pIC50 [9]: <4.19
Inf. D pIC50 [10]: 5.55
Inf. G pIC50 [11]: <4.19

FC1(F)CCc2cc(C3=NCc4ccc(Cl)cc4-n4cccc43)ccc21 [Compound 67, 9-chloro-4-(1,1-difluoro-2,3-dihydro-1H-inden-5-yl)-6H-pyrrolo[1,2-a][1,4]benzo-diazepine]
Inf. B pIC50 [1]: 5.09
Inf. A pIC50 [4]: 5.10
Inf. F pIC50 [6]: 5.36
Inf. E pIC50 [8]: 5.10
Inf. C pIC50 [9]: <4.19
Inf. D pIC50 [10]: 5.90
Inf. G pIC50 [11]: 5.09

FC1(F)CCc2cc(C3=NCc4cccc(Cl)c4-n4cccc43)ccc21 [Compound 68, 10-chloro-4-(1,1-difluoro-2,3-dihydro-1H-inden-5-yl)-6H-pyrrolo[1,2-a][1,4]benzo-diazepine]
Inf. B pIC50 [1]: <4.19
Inf. A pIC50 [4]: <4.19
Inf. F pIC50 [6]: <4.19
Inf. E pIC50 [8]: 4.19
Inf. C pIC50 [9]: <4.19
Inf. D pIC50 [10]: <4.19
Inf. G pIC50 [11]: <4.19

FC1(F)CCc2cc(C3=NCc4ccc(Cl)cc4-n4cccc43)ccc2O1 [Compound 71, 9-chloro-4-(2,2-difluoro-3,4-dihydro-2H-1-benzopyran-6-yl)-6H-pyrrolo[1,2-a]-[1,4]benzodiazepine]
IC50 [1]: 617 nM
IC50 [4]: 1950 nM
IC50 [6]: 100 nM
IC50 [8]: 219 nM
IC50 [9]: 269 nM
IC50 [10]: 8130 nM
IC50 [11]: 309 nM

FC1(F)CCc2cc(C3=NCc4cccc(Cl)c4-n4cccc43)ccc2O1 [Compound 72, 10-chloro-4-(2,2-difluoro-3,4-dihydro-2H-1-benzopyran-6-yl)-6H-pyrrolo[1,2-a]-[1,4]benzodiazepine]
IC50 [1]: 407 nM
IC50 [4]: 2630 nM
IC50 [6]: 380 nM
IC50 [8]: 617 nM
IC50 [9]: 407 nM
IC50 [10]: 11000 nM
IC50 [11]: 1620 nM

Fc1cc(F)c2c(c1)-n1cccc1C(c1ccc3c(c1)CCC(F)(F)O3)=NC2 [Compound 73, 4-(2,2-difluoro-3,4-dihydro-2H-1-benzopyran-6-yl)-7,9-difluoro-6H-pyrrolo[1,2-a]-[1,4]benzodiazepine]
IC50 [1]: 9330 nM
IC50 [4]: 31600 nM
IC50 [6]: 4680 nM
IC50 [8]: > 64600 nM
IC50 [9]: 32400 nM
IC50 [10]: 2140 nM
IC50 [11]: 32400 nM

CN1CCc2cc(C3=NCc4c(F)cccc4-n4cccc43)ccc21 [Compound 81, 4-(2,3-dihydro-1-methyl-1H-indol-5-yl)-7-fluoro-6H-pyrrolo[1,2-a][1,4]benzo-diazepine]
Inf. B pIC50 [1]: 5.28
Inf. A pIC50 [4]: 4.49
Inf. F pIC50 [6]: 5.29
Inf. E pIC50 [8]: 4.39
Inf. C pIC50 [9]: 5.65
Inf. D pIC50 [10]: 4.60
Inf. G pIC50 [11]: 4.90

Clc1cccc2c1-n1cccc1C(c1ccc3c(c1)CCOC3)=NC2 [Compound 82, 10-chloro-4-(3,4-dihydro-1H-2-benzopyran-6-yl)-6H-pyrrolo[1,2-a][1,4]benzo-diazepine]
Inf. B pIC50 [1]: 5.69
Inf. A pIC50 [4]: 5.06
Inf. F pIC50 [6]: 5.26
Inf. E pIC50 [8]: 5.56
Inf. C pIC50 [9]: 5.95
Inf. D pIC50 [10]: 4.77
Inf. G pIC50 [11]: 5.56
